According to patent US20250188110A1, “SPECIFIC SMALL MOLECULE INHIBITORS THAT BLOCK KMT9 METHYLTRANSFERASE ACTIVITY AND FUNCTION” (ALBERT-LUDWIGS-UNIVERSITÄT FREIBURG, priority 2021, published 2025):

What was measured:
KMT9 [1] = target: T1, KMT9 (Homo sapiens, UniProt Q9Y5N5); assay: KMT9 methyltransferase inhibition assay, 3H-SAM scintillation (entries 1-154); type: biochemical; conditions: entries 1-154: 3H-SAM assay, 25 nM KMT9, 5 μM ETF1
T1 sequence (Q9Y5N5 1-214): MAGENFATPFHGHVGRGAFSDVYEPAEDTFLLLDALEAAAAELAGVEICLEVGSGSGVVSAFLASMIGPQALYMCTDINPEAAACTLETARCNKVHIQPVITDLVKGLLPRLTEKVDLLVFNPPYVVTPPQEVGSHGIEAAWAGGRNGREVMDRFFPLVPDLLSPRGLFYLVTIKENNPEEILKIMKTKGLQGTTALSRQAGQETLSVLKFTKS
T1 sequence (Q9UI30 1-120 isoform Q9UI30-2 partner): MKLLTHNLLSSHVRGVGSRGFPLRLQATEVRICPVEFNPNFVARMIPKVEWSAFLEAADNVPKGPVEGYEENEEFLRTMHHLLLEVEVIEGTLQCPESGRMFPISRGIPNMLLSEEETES
Procedure: The assay was carried out in 0.5 mL Eppendorf tubes in duplicates. Assay buffer consisted of 50 mM BTP, 1 mM MgCl2, 1 mM DTT and 0.01% Triton-X^100 at a pH of 8.5 (adjusted using 1 M HCl and 1 M NaOH). 20X inhibitor stock (in DMSO), 2X enzyme stock and 4X substrate mix (both in assay buffer) were prepared. The substrate mix consisted of Tritium-labelled S-adenosylmethionine (3H-SAM), S-adenosylmethionine (SAM) and eukaryotic peptide chain release factor subunit1 (Homo sapiens, residues 140-275)(ETF1). Final assay concentrations were set to 25 nM KMT9, 0.3 μM 3H-SAM, 0.7 µM SAM and 5 μM ETF1. […] 5 μL of 4x substrate mix was added to initiate the reaction. The final reaction volume was 20 μL. For the positive control, the compound of formula (I) was replaced by DMSO; for the negative control, the compound of formula (I) was replaced by DMSO and KMT9 was replaced by assay buffer. The reaction mix was incubated in an Eppendorf thermomixer comfort at 30° C. for 2 h, shaking at 300 rpm. The reaction was quenched using 5 μL 50% trichloroacetic acid (TCA) and incubated at 25° C. for 5 minutes. 22 μL of the mixture was transferred into 96-well MultiScreen@HTS FB filter plates (Merck KGaA, Darmstadt, Germany) and washed four times with 10% TCA and two times with 100% ethanol. The plate was dried overnight, the filters were transferred into individual 6 mL Pony Vials (Perkin Elmer Inc, Waltham, MA, USA) and incubated in 3 mL of Ultima Gold scintillation cocktail (Perkin Elmer Inc, Waltham, MA, USA) for 30 minutes. The scintillation signal was measured for 3x 1 min using TriCarb 2910 TR (Perkin Elmer) scintillation counter in 3H CPM mode (LL: 0, UL: 18.6). Inhibition was calculated using the following formula: […]
With xc: signal of compound, Xpos: mean signal of positive control, Xneg: mean signal of negative control. Data fitting was carried out by GraphPad 7.0 using nonlinear fit ([Inhibitor]vs. response-variable slope (four parameters)).
For the results of the methyltransferase inhibition assay shown as “Inhibition” in Table 1, “I” represents an IC50 less than 0.1 μM, “II” represents an IC50 equal or higher than 0.1 μM and less than 1 μM, “III” represents an IC50 equal or higher than 1 µM and less than 10 µM and “IV” represents an IC50 equal or higher than 10 µM

KMT9 [2] = target: T1, KMT9; assay: Microscale thermophoresis (MST) KMT9 binding; conditions: microscale thermophoresis, His-tag labelled KMT9 (20 nM); read-out: MST
Procedure: To determine the binding affinity of the compounds according to the present invention and KMT9, microscale thermophoresis (MST) analysis was performed with a NanoTemper Monolith NT.115 instrument (NanoTemper Technologies GmbH). KMT9 was labelled with a RED-Tris-NTA labelling kit (NanoTemper Technologies GmbH) based on the manufacturer's instructions. Buffer including 25 mM HEPES (pH 7.5), 100 mM NaCl, 1 mM DTT and 0.05% Tween was used for the reaction buffer. Varying concentrations of the tested compounds of formula (I) as indicated in Table 1 were titrated against His-tag labelled KMT9 proteins (20 nM). Samples were loaded into standard Capillaries (NanoTemper Technologies GmbH) and MST measurements were performed using 40% MST power and 100% LED power. For each set of binding experiments, MST measurement was carried out with Binding Affinity module in MO.Control program under Nano-RED Excitation. Datasets were processed with the MO.Affinity Analysis software (NanoTemper Technologies GmbH).
For the results of the microscale thermophoresis (MST) assay shown as “MST” in Table 1, “A” represents a Kd of equal to or less than 10 nM (Kd≤10 nM); “B” represents a Kd of greater than 10 nM and equal to or less than 100 nM (10 nM<Kd<100 nM); “C” represents a Kd of greater than 100 nM and equal to or less than 1000 nM (100 nM<Kd ≤ 1000 nM); “D” represents a Kd of greater than 1000 nM (1000 nM<Kd).

KMT9 [3] = target: T1, KMT9; assay: KMT9 thermal shift assay (SyproOrange); type: binding; conditions: ΔTm; 500 µM compound, 2 μM KMT9, 5X SO; read-out: Thermal shift
Procedure: The assay was carried out in 96-well Hard-Shell PCR plates (Bio-Rad Laboratories Inc.). Assay buffer consisted of 50 mM BTP, 1 mM MgCl2 and 1 mM DTT at a pH of 8.5 (adjusted using 1 M HCl and 1 M NaOH). 20X inhibitor stock (in DMSO), 2X enzyme stock and 4X SyproOrange (SO) stock (both in assay buffer) were prepared. 1 μL of 20X compound, 4 μL of assay buffer, 10 μL of 2X KMT9 and 5 μL of 4X SO were pipetted. For the no-compound control, 20X inhibitor stock was replaced by DMSO. The final volume was 20 μL. The plate was spun down at 700 rpm for 1 min using a Hettich UNIVERSAL 320 centrifuge and incubated at 25° C., shaking at 600 rpm. After incubation, the plate was spun down for 1 min at 700 rpm and measurement was conducted using a CFX96 Touch Real-Time PCR Detection System (Bio-Rad Laboratories Inc.). The plate was equilibrated at 20° C. for 4 min and then heated stepwise at a rate of 1° C. per 15 s until 95° C. After every step, fluorescence was measured in FRET mode. Calculation of melting points was conducted by a Boltzman sigmoidal model using GraphPad Prism 7.0.
For the results of the thermal shift assay shown as “Thermal shift” in Table 1, “++++” represents a ΔTm of greater 20 K, “+++” represents a ΔTm of greater than 15 K and less than or equal to 20 K (15 K<ΔTm≤20 K); “++” represents a ΔTm of greater than 10 K and less than or equal to 15 K (10 K<ΔTm ≤ 15 K); “+” represents a ΔTm of equal to or less than 10 K (ΔTm≤10 K).

SMILES	IC50 (KMT9 [1])	Kd (KMT9 [2])	ΔTm at 500 µM (KMT9 [3])
CNc1ncnc2c1ccn2[C@@H]1C[C@H](CSCCNCCc2ccccc2)[C@@H](O)[C@H]1O [431 (303), (1R,2S,3R,5S)-3-(4-(Methylamino)-7H-pyrrolo[2,3-d]pyrimidin-7-yl)-5-(((2-(phenethylamino)ethyl)thio)methyl) cyclopentane-1,2-diol]	> 10000 nM	> 1000 nM	≤ 10 °C
CNc1ncnc2c1ccn2[C@@H]1C[C@H](CN2CCC[C@]23CCCNC3)[C@@H](O)[C@H]1O (single isomer, unassigned) [449 (321)]	> 10000 nM	> 1000 nM	≤ 10 °C
CNc1ncnc2c1ccn2[C@@H]1C[C@H](/C=C/CCCNCCc2ccccc2)[C@@H](O)[C@H]1O [425 (296), (1R,2S,3R,5R)-3-(4-(methylamino)-7H-pyrrolo[2,3-d]pyrimidin-7-yl)-5-((E)-5-(phenethylamino)pent-1-en-1-yl) cyclopentane-1,2-diol]	> 10000 nM	> 1000 nM	≤ 10 °C
CNC(=O)[C@H]1C[C@@H](n2cc3c4c(ncnc42)NCCC3)[C@H](O)[C@@H]1O [Compound 624, (1S,2R,3S,4R)-2,3-Dihydroxy-N-methyl-4-(6,7,8,9-tetrahydro-2H-2,3,5,6-tetraazabenzo[cd]azulen-2-yl)cyclopentane-1-carboxamide]	> 10000 nM	> 1000 nM	≤ 10 °C

Further lines, results first:

IC50 (KMT9 [1])	Kd (KMT9 [2])	ΔTm at 500 µM (KMT9 [3])	SMILES
1000 to 10000 nM	100 to 1000 nM	10 to 15 °C	Nc1ncnc2c1ncn2[C@@H]1O[C@H](C(=O)NCCCNCCc2cccc(Oc3ccccc3)c2)[C@@H](O)[C@H]1O [299 (196), (2S,3S,4R,5R)-5-(6-amino-9H-purin-9-yl)-3,4-dihydroxy-N-(3-((3-phenoxyphenethyl)amino)propyl) tetrahydrofuran-2-carboxamide]
> 10000 nM	> 1000 nM	≤ 10 °C	NC[C@H]1C[C@@H](n2cc3c4c(ncnc42)NC(=O)CC3)[C@H](O)[C@@H]1O [Compound 626, 2-((1R,2S,3R,4R)-4-(Aminomethyl)-2,3-dihydroxycyclopentyl)-2,6,8,9-tetrahydro-7H-2,3,5,6-tetraazabenzo[cd]azulen-7-one]
> 10000 nM	> 1000 nM	≤ 10 °C	CNc1ncnc2c1ccn2[C@@H]1C[C@H](CN2CCCCC23CCNC3)[C@@H](O)[C@H]1O (stereo partly drawn) [448 (320), (1S,2R,3R,5R)-3-{2,6-diazaspiro[4.5]decan-6-ylmethyl}-5-[4-(methylamino)pyrrolo[2,3-d]pyrimidin-7-yl]cyclopentane-1,2-diol]
1000 to 10000 nM	100 to 1000 nM	≤ 10 °C	Nc1ncnc2c1ncn2[C@@H]1O[C@H](C(=O)NCCCNCCc2ccc(Oc3ccccc3)cc2)[C@@H](O)[C@H]1O [297 (194), (2S,3S,4R,5R)-5-(6-amino-9H-purin-9-yl)-3,4-dihydroxy-N-(3-((4-phenoxyphenethyl)amino)propyl) tetrahydrofuran-2-carboxamide]
1000 to 10000 nM	> 1000 nM	≤ 10 °C	CNc1ncnc2c1ccn2[C@@H]1C[C@H](CN(CCCN)c2cncs2)[C@@H](O)[C@H]1O [437 (309), (1S,2R,3R,5R)-3-{[(3-Aminopropyl)(1,3-thiazol-5-yl)amino]methyl}-5-[4-(methylamino)pyrrolo[2,3-d]pyrimidin-7-yl]cyclopentane-1,2-diol]
100 to 1000 nM	10 to 100 nM	15 to 20 °C	Nc1ncnc2c1c(C1CC1)cn2[C@@H]1C[C@H](CNCCCNCCc2cccc(Oc3ccccc3)c2)[C@@H](O)[C@H]1O [460 (333), (1R,2S,3R,5R)-3-(4-Amino-5-cyclopropyl-7H-pyrrolo[2,3-d]pyrimidin-7-yl)-5-(((3-((3-phenoxyphenethyl)amino)propyl)amino)methyl) cyclopentane-1,2-diol]
